From ChEMBL document CHEMBL1201862, “PubChem BioAssay data set” (2004)
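Method: 48-hour compound exposure of cells in 96-well plates, five concentrations, linear interpolation of endpoints. GI50 marks 50% less growth.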 Calls of active or inactive are those of the source. Cut-off read from the data, not from the text of the source: active = GI50 up to about 1.1 µM and inactive = higher. *1 amine or outer side, *2 acyl side, *3 side chain or, on linkers, in order; H or OH if unused. Where a SMILES comes first, the peptide text is derived from it. The star is where a group is joined. γGlu = O=C(O)[CH](CCC(=O)[*:2])N[*:1]; NHOH = ON*

Key:
Assay in all cases: NCI-60 cell line screen, 48 h
OVCAR-3 = test system: OVCAR-3
SK-MEL-2 = test system: SK-MEL-2
DU-145 = test system: DU-145
K562 = test system: K562
HOP-62 = test system: HOP-62
MCF7 = test system: MCF7
786-0 = test system: 786-0
CCRF-CEM = test system: CCRF-CEM
HL-60 = test system: HL-60
BT-549 = test system: BT-549
ACHN = test system: ACHN
SF-539 = test system: SF-539
SN12C = test system: SN12C
SK-MEL-28 = test system: SK-MEL-28
NCI-H226 = test system: NCI-H226
SK-MEL-5 = test system: SK-MEL-5
NCI-H522 = test system: NCI-H522
NCI/ADR-RES = test system: NCI/ADR-RES

Row | SMILES | GI50 (OVCAR-3) | GI50 (SK-MEL-2) | GI50 (DU-145) | GI50 (K562) | GI50 (HOP-62) | GI50 (MCF7) | GI50 (786-0) | GI50 (CCRF-CEM) | GI50 (HL-60) | GI50 (BT-549) | GI50 (ACHN) | GI50 (SF-539) | GI50 (SN12C) | GI50 (SK-MEL-28) | GI50 (NCI-H226) | GI50 (SK-MEL-5) | GI50 (NCI-H522) | GI50 (NCI/ADR-RES)
1 | Cc1c2cnccc2c(C)c2c1[nH]c1ccc(O)cc12 | 1.13 µM (inactive) | 6.25 µM (inactive) | 1.64 µM (inactive) | 3.17 µM (inactive) | 1.02 µM (active) | 0.914 µM (active) | 0.241 µM (active) | 0.74 µM (active) | 1.05 µM (active) | 6.01 µM (inactive) | 1.32 µM (inactive) | 1.07 µM (active) | 1.12 µM (inactive) | 3.01 µM (inactive) | 0.328 µM (active) | > 10 µM (inactive) | 2.82 µM (inactive) | 0.693 µM (active)
2 | O=C(O)C(CO)NC(=O)C1C(C(=O)O)C(c2ccccc2[N+](=O)[O-])C=C(c2ccco2)N1c1ccncc1 (centres undefined) | 6.28 µM (inactive) | 16.3 µM (inactive) | 11.4 µM (inactive) | 1.99 µM (inactive) | 12.2 µM (inactive) | 1.99 µM (inactive) | 3.08 µM (inactive) | 2.19 µM (inactive) | 2.97 µM (inactive) | 5.85 µM (inactive) | 1.91 µM (inactive) | 1.84 µM (inactive) | 4.62 µM (inactive) | 9.55 µM (inactive) | 14.5 µM (inactive) | 4.49 µM (inactive) | 4.61 µM (inactive) | 9.23 µM (inactive)
3 | CCOP1(=O)CC(C)=C(Cl)C(OC)C1 (centres undefined) | > 100 µM (inactive) | > 100 µM (inactive) | > 100 µM (inactive) | 30.5 µM (inactive) | > 100 µM (inactive) | > 100 µM (inactive) | > 100 µM (inactive) | 30.1 µM (inactive) | 57.1 µM (inactive) | > 100 µM (inactive) | > 100 µM (inactive) | > 100 µM (inactive) | > 100 µM (inactive) | > 100 µM (inactive) | > 100 µM (inactive) | > 100 µM (inactive) | 34 µM (inactive) | > 100 µM (inactive)
4 | NC(CCC(=O)NC(CCC(=O)NO)C(=O)NCC(=O)O)C(=O)O (centres undefined) (γGlu-Glu(NHOH)-Gly-OH; configuration not given here) | > 100 µM (inactive) | > 100 µM (inactive) | > 100 µM (inactive) | > 100 µM (inactive) | > 100 µM (inactive) | > 100 µM (inactive) | > 100 µM (inactive) | > 100 µM (inactive) | > 100 µM (inactive) | > 100 µM (inactive) | > 100 µM (inactive) | > 100 µM (inactive) | > 100 µM (inactive) | > 100 µM (inactive) | > 100 µM (inactive) | > 100 µM (inactive) | > 100 µM (inactive) | > 100 µM (inactive)
5 | Cc1csc(-c2cn(C)c3c2C(=O)C(=N)C=C3O)n1 | 6.41 µM (inactive) | 19.8 µM (inactive) | 4.12 µM (inactive) | 6.28 µM (inactive) | 6.89 µM (inactive) | 3.27 µM (inactive) | 32.4 µM (inactive) | 5.31 µM (inactive) | 1.58 µM (inactive) | 44.9 µM (inactive) | 3.71 µM (inactive) | 5.01 µM (inactive) | 39.1 µM (inactive) | 20.3 µM (inactive) | 8.39 µM (inactive) | 1.53 µM (inactive) | 13.6 µM (inactive) | 9.98 µM (inactive)
6 | COc1ccc(C(=O)CCN(C)C)c2ccccc12 | 16.3 µM (inactive) | 19.5 µM (inactive) | 28.2 µM (inactive) | 29.7 µM (inactive) | 24.1 µM (inactive) | 4.63 µM (inactive) | 5.93 µM (inactive) | 2.79 µM (inactive) | 15.6 µM (inactive) | 19.3 µM (inactive) | 18.3 µM (inactive) | 14.9 µM (inactive) | 21.5 µM (inactive) | 24.8 µM (inactive) | > 100 µM (inactive) | > 56.8 µM (inactive) | 5.21 µM (inactive) | 35.9 µM (inactive)
7 | O=[N+]([O-])c1ccc(S(=O)(=O)Cc2ccccc2)c2nonc12 | 20.8 µM (inactive) | 19.3 µM (inactive) | 18.7 µM (inactive) | 26.6 µM (inactive) | 22.7 µM (inactive) | 20.2 µM (inactive) | 19.6 µM (inactive) | 9.06 µM (inactive) | 18.3 µM (inactive) | 18.5 µM (inactive) | 22 µM (inactive) | 17.9 µM (inactive) | 13.9 µM (inactive) | 20.5 µM (inactive) | > 100 µM (inactive) | 18.5 µM (inactive) | 18.8 µM (inactive) | 27 µM (inactive)
8 | NC(CCCCNc1ccn(C2OC(CO)C(O)C2O)c(=O)n1)C(=O)O (centres undefined) | > 100 µM (inactive) | 77.8 µM (inactive) | > 100 µM (inactive) | > 100 µM (inactive) | – | > 100 µM (inactive) | > 100 µM (inactive) | 35 µM (inactive) | > 100 µM (inactive) | > 100 µM (inactive) | > 100 µM (inactive) | > 100 µM (inactive) | > 100 µM (inactive) | > 100 µM (inactive) | > 100 µM (inactive) | > 100 µM (inactive) | > 100 µM (inactive) | > 100 µM (inactive)
9 | C=CC[C@@]1(C(=O)OC)[C@H](Sc2ccccc2)C1(C)C | 44.3 µM (inactive) | 24.2 µM (inactive) | 67.9 µM (inactive) | – | > 100 µM (inactive) | 25.9 µM (inactive) | 33.4 µM (inactive) | 28.8 µM (inactive) | 16.2 µM (inactive) | 46 µM (inactive) | > 100 µM (inactive) | 35.3 µM (inactive) | 21.1 µM (inactive) | 78.2 µM (inactive) | 35.5 µM (inactive) | 18.7 µM (inactive) | 30.5 µM (inactive) | 44.9 µM (inactive)
10 | CC(=O)NC(Cc1ccccc1)NC(=O)O (centres undefined) | > 100 µM (inactive) | > 100 µM (inactive) | > 100 µM (inactive) | > 100 µM (inactive) | > 100 µM (inactive) | > 100 µM (inactive) | > 100 µM (inactive) | > 100 µM (inactive) | > 100 µM (inactive) | > 100 µM (inactive) | > 100 µM (inactive) | > 100 µM (inactive) | > 100 µM (inactive) | > 100 µM (inactive) | > 100 µM (inactive) | > 100 µM (inactive) | > 100 µM (inactive) | > 100 µM (inactive)
11 | Cc1ccc(/C=C2\CN(C)CC3=C2OC(N)=C(C#N)C3c2ccc(C)cc2)cc1 (centres undefined) | 12.1 µM (inactive) | 39.9 µM (inactive) | 17.9 µM (inactive) | 11.2 µM (inactive) | 22.7 µM (inactive) | 18 µM (inactive) | 15.6 µM (inactive) | 4.2 µM (inactive) | < 0.01 µM (active) | 16.7 µM (inactive) | 18.8 µM (inactive) | 41.7 µM (inactive) | 17.3 µM (inactive) | 27.8 µM (inactive) | 22.2 µM (inactive) | 25.9 µM (inactive) | 12.2 µM (inactive) | 20.7 µM (inactive)
12 | CC(C)=CC(Cc1ccccc1)S(=O)(=O)c1nc2ccccc2s1 (centres undefined) | 15.3 µM (inactive) | 13.1 µM (inactive) | 17.7 µM (inactive) | 12.6 µM (inactive) | 28.8 µM (inactive) | 14.7 µM (inactive) | 14.6 µM (inactive) | 2.37 µM (inactive) | 2.84 µM (inactive) | 14.6 µM (inactive) | 18.8 µM (inactive) | 16.2 µM (inactive) | 12 µM (inactive) | 16.1 µM (inactive) | 13.3 µM (inactive) | 13.6 µM (inactive) | 11.3 µM (inactive) | 19.7 µM (inactive)
13 | C[Si](C)(C)C#CCOC=C1CC1 | – | > 100 µM (inactive) | > 100 µM (inactive) | > 100 µM (inactive) | > 100 µM (inactive) | > 100 µM (inactive) | 47.1 µM (inactive) | 34.4 µM (inactive) | 35.2 µM (inactive) | > 100 µM (inactive) | > 100 µM (inactive) | > 100 µM (inactive) | > 100 µM (inactive) | > 100 µM (inactive) | > 100 µM (inactive) | > 100 µM (inactive) | > 100 µM (inactive) | > 100 µM (inactive)
14 | ClC1=C(Cl)C(Cl)(Cl)SS1 | > 5.56 µM (inactive) | > 10 µM (inactive) | > 10 µM (inactive) | 3.17 µM (inactive) | > 10 µM (inactive) | > 5.27 µM (inactive) | > 4.41 µM (inactive) | 0.879 µM (active) | 2.24 µM (inactive) | > 8.73 µM (inactive) | 5.98 µM (inactive) | > 10 µM (inactive) | > 10 µM (inactive) | > 10 µM (inactive) | > 10 µM (inactive) | > 7.01 µM (inactive) | 2.88 µM (inactive) | > 7.21 µM (inactive)
15 | c1ccc(C(c2cccc3c2ccc2ccccc23)C(c2ccccc2)c2cccc3c2ccc2ccccc23)cc1 (centres undefined) | > 100 µM (inactive) | > 100 µM (inactive) | > 100 µM (inactive) | > 100 µM (inactive) | > 100 µM (inactive) | > 100 µM (inactive) | > 100 µM (inactive) | > 100 µM (inactive) | 65.8 µM (inactive) | > 100 µM (inactive) | > 100 µM (inactive) | > 100 µM (inactive) | > 100 µM (inactive) | > 100 µM (inactive) | > 100 µM (inactive) | > 100 µM (inactive) | > 100 µM (inactive) | > 100 µM (inactive)
16 | OC[C@H]1CCCC1O (some centres undefined) | > 100 µM (inactive) | > 100 µM (inactive) | > 100 µM (inactive) | > 100 µM (inactive) | – | > 100 µM (inactive) | > 100 µM (inactive) | > 100 µM (inactive) | > 100 µM (inactive) | > 100 µM (inactive) | > 100 µM (inactive) | > 100 µM (inactive) | > 100 µM (inactive) | > 100 µM (inactive) | > 100 µM (inactive) | > 100 µM (inactive) | > 100 µM (inactive) | > 100 µM (inactive)
